{"source": "patent US20150011466A1", "about": "“APJ Receptor Compounds” (priority 2012, published 2015)", "test_system": "Human TRex cells not induced, do not express the APJ receptor", "assay": "HTRF cAMP assay in Human TRex cells not induced (no APJ receptor)", "type": "cell-based", "method": "cAMP kits based on a competitive immunoassay using cryptate-labeled anti-cAMP antibody and d2-labeled cAMP were used to assay the effects of APJ compounds of the present invention. This assay measures the increase in intracellular cAMP upon Gs-coupled receptor activation as well as decrease in forskolin (or a more soluble version of forskolin—NKH477) stimulated increase in cAMP upon Gi-coupled receptor activation. […] Cells are treated with lnG/mL doxycycline and seeded in all white 96 well plates @ 40 k/well overnight."}
{"smiles": "CSCC[C@H](NC(=O)[C@@H]1CCCN1C(=O)CNC(=O)[C@H](CCCCN)NC(=O)[C@H](Cc1c[nH]cn1)NC(=O)[C@H](CO)NC(=O)[C@H](CC(C)C)NC(=O)[C@H](CCCNC(=N)N)NC(=O)[C@@H]1CCCN1C(=O)[C@H](CCCNC(=N)N)NC(=O)[C@@H](N)CCC(N)=O)C(=O)N1CCC[C@H]1C(=O)N[C@@H](Cc1ccccc1)C(=O)O", "note": "[Apelin]", "values": [{"measurement": "inhibition of NKH477 stimulated cAMP", "result": "does not inhibit"}]}
